Source: PubChem BioAssay (NCI)
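Results reflect a 48-hour exposure of cells in 96-well plates to compound at five concentrations. GI50 is the concentration that inhibits growth by half. TGI marks complete inhibition of growth.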

How the values were obtained:
Assay in all cases: NCI anticancer screen, dose series, 48 h
NCI/ADR-RES ovarian = tested on: NCI/ADR-RES ovarian
MOLT-4 leukemia = tested on: MOLT-4 leukemia
TK-10 renal = tested on: TK-10 renal
OVCAR-4 ovarian = tested on: OVCAR-4 ovarian
OVCAR-3 ovarian = tested on: OVCAR-3 ovarian
SK-MEL-5 melanoma = tested on: SK-MEL-5 melanoma
K-562 leukemia = tested on: K-562 leukemia
T-47D breast = tested on: T-47D breast
RXF 393 renal = tested on: RXF 393 renal
CCRF-CEM leukemia = tested on: CCRF-CEM leukemia

Compound | GI50 (NCI/ADR-RES ovarian) [µM] | TGI (NCI/ADR-RES ovarian) [µM] | GI50 (MOLT-4 leukemia) [µM] | TGI (MOLT-4 leukemia) [µM] | GI50 (TK-10 renal) [µM] | TGI (TK-10 renal) [µM] | GI50 (OVCAR-4 ovarian) [µM] | TGI (OVCAR-4 ovarian) [µM] | GI50 (OVCAR-3 ovarian) [µM] | TGI (OVCAR-3 ovarian) [µM] | GI50 (SK-MEL-5 melanoma) [µM] | TGI (SK-MEL-5 melanoma) [µM] | GI50 (K-562 leukemia) [µM] | TGI (K-562 leukemia) [µM] | GI50 (T-47D breast) [µM] | TGI (T-47D breast) [µM] | TGI (RXF 393 renal) [µM] | TGI (CCRF-CEM leukemia) [µM] | GI50 (CCRF-CEM leukemia) [µM] | GI50 (RXF 393 renal) [µM]
Cc1cc(C(=O)N2CCN(C)CC2)c2c(=O)n(-c3ccccc3)c(=O)n(CC(O)CN3CCN(c4ncccn4)CC3)c2n1 (centres undefined) | > 100 | > 100 | > 100 | > 100 | > 100 | > 100 | > 100 | > 100 | > 100 | > 100 | > 100 | > 100 | > 100 | > 100 | > 100 | > 100 |  |  |  | 
CC(C)(C)C1CCC(CI)(N=[N+]=[N-])CC1 (centres undefined) |  |  |  | > 100 |  | > 100 |  | > 100 |  | > 100 |  | > 100 |  | > 100 |  |  | > 100 | > 100 |  | 
COc1ccc(C2c3cc4c(c(OC)c3CC3OCC(=O)C32)OCO4)cc1OC (centres undefined) | < 0.01 | 28.4 |  |  |  | > 100 | 15.7 | > 100 |  |  |  |  |  |  |  |  |  | < 0.01 | < 0.01 | 
COC(=O)[C@H]1CC(=O)C=C2CCCC21 (some centres undefined) |  |  |  | > 100 |  | > 100 |  | > 100 |  | > 100 |  | > 100 |  | > 100 |  |  | > 100 | > 100 |  | 
O=C(O)c1ccccc1-c1ccccc1C(=O)Nc1ccc2c(c1)Cc1ccccc1-2 |  | > 100 |  |  |  | > 100 |  | > 100 |  | 69.9 |  | 31.6 |  |  |  | > 100 | > 100 |  |  | 
Cc1ccc(C)c(NC(=O)C(=O)CC(=O)c2cccc3ccccc23)c1 |  |  |  | > 100 |  | > 100 |  | > 100 |  | > 100 |  | > 100 |  | > 100 |  |  | > 100 | > 100 |  | 
CCOP(=O)(CCN1CCN(CCCCCOc2cc3c(cc2OC)C(=O)N2CCC[C@H]2C=N3)CC1)OCC | > 100 | > 100 | 2.16 | 6.37 | 22.8 | > 100 | 14.9 | 57.1 | 7.48 | 34.1 | 3.62 | 23.8 | 2.37 | > 100 | 2.44 | 9.38 | 6.59 |  |  | 1.77
Cc1ccc2c(n1)C(=O)C(Cl)=C(Nc1ccc(N3CCN(C)CC3)cc1)C2=O | 3.09 | 9.45 | 2.37 | 5.78 | 1.95 | 3.42 | 1.5 | 2.87 | 1.63 | 3.13 | 1.72 | 3.1 | 2.72 | 8.92 |  |  | 3.05 | 56.4 | 3.07 | 1.67
CC(=O)Nc1cc(C(c2ccccc2)c2ccccc2)cc(C(c2ccccc2)c2ccccc2)c1C | 6.01 | > 100 |  |  |  |  | 21.7 | > 100 | 7.33 | > 100 | 5.51 | > 100 | 2.83 | > 100 | 3.18 | > 100 | > 100 |  |  | 27.5
CC1=C(C(=O)Nc2cccc(C(F)(F)F)c2)C(c2ccccc2F)C(C(=O)Nc2cccc(C(F)(F)F)c2)=C(C)N1 |  |  |  | 8.41 |  | 25.7 |  | 14 |  | 17.8 |  | 18 |  | 18.6 |  |  | 15.5 | 12.4 |  | 
CCOC(=O)C/C(N)=C(\C#N)C(=O)OCC |  |  |  | > 100 |  | > 100 |  |  |  | > 100 |  | > 100 |  | > 100 |  |  | > 100 | > 100 |  | 
O=C(O)/C(=C/c1ccccc1[N+](=O)[O-])c1cccs1 |  |  |  | > 100 |  | > 100 |  | > 100 |  | > 100 |  | > 100 |  | > 100 |  |  |  |  |  | 
Cc1nn2c(=O)n(-c3cccc(-n4nnc5c(-c6ccccc6)c(C)nn5c4=O)c3C)nnc2c1-c1ccccc1 |  |  |  | 50 |  | > 100 |  | 53.7 |  | 44.3 |  | 33.8 |  | > 100 |  |  | > 100 | > 100 |  | 
Cc1ccc(SC2C(C)(C)N(C(C)C)P2(=O)N(C(C)C)C(C)C)cc1 (centres undefined) |  |  |  | > 59.3 |  | > 100 |  | > 100 |  | > 100 |  | > 100 |  | > 52.4 |  |  |  | > 55.7 |  | 
O=C(N/N=C/c1ccncc1)c1ccc(C(F)(F)F)nc1Nc1cccc(C(F)(F)F)c1 | 2.67 | 9.22 | 2.53 | 9.1 | 2.52 | 11.6 | 0.808 | 7.99 | 2.65 | 7.74 | 2.81 | 11.7 | 2.69 | 11.8 | 1.78 | 10.5 | 5.28 |  |  | 1.51
O=c1c2cc(Br)ccc2[nH]c(=S)n1-c1ccccc1 |  |  |  |  |  | > 100 |  | > 100 |  | > 100 |  | > 100 |  | > 100 |  |  |  | > 100 |  | 

Compound | GI50 (NCI/ADR-RES ovarian) [µM] | TGI (NCI/ADR-RES ovarian) [µM] | GI50 (MOLT-4 leukemia) [µM] | TGI (MOLT-4 leukemia) [µM] | GI50 (TK-10 renal) [µM] | TGI (TK-10 renal) [µM] | GI50 (OVCAR-4 ovarian) [µM] | TGI (OVCAR-4 ovarian) [µM] | GI50 (OVCAR-3 ovarian) [µM] | TGI (OVCAR-3 ovarian) [µM] | GI50 (SK-MEL-5 melanoma) [µM] | TGI (SK-MEL-5 melanoma) [µM] | GI50 (K-562 leukemia) [µM] | TGI (K-562 leukemia) [µM] | GI50 (T-47D breast) [µM] | TGI (T-47D breast) [µM] | TGI (RXF 393 renal) [µM] | TGI (CCRF-CEM leukemia) [µM] | GI50 (CCRF-CEM leukemia) [µM] | GI50 (RXF 393 renal) [µM]
O=[N+]([O-])c1ccc(N/N=C/c2ccccc2O)nc1 | 0.373 | > 100 |  |  | 3.43 | > 100 | 0.408 | > 100 | 0.368 | > 100 | 1.61 | > 100 |  |  | 3.2 | > 100 | > 100 |  |  | 3.48
CN=c1ss/c(=N\C(=S)N(C)C)n1C1CCCCC1 |  |  |  | > 31.6 |  | > 31.6 |  | > 31.6 |  | > 31.6 |  | > 31.6 |  | > 31.6 |  |  | > 31.6 | > 31.6 |  | 
CC(=O)n1cc(CC(C)O)c(=O)[nH]c1=O (centres undefined) |  |  |  | > 100 |  | > 100 |  | > 100 |  | > 100 |  | > 100 |  | > 100 |  |  |  |  |  | 
Cc1ccc(S(=O)(=O)Nc2cccc(C)c2C)cc1 |  |  |  | > 100 |  | > 100 |  | > 100 |  | > 100 |  | > 100 |  | > 100 |  |  | 84 | > 100 |  | 
O=S1c2ccccc2N=C(c2ccc3ccccc3c2)CC1c1ccccc1F (centres undefined) |  |  |  | > 100 |  | > 100 |  | > 100 |  | > 100 |  | > 100 |  | > 100 |  |  | > 100 | > 100 |  | 
NC(=O)c1ccccc1NC(=O)C(=O)Nc1n[nH]c(N)n1 |  |  |  | > 100 |  | > 100 |  | > 100 |  | > 100 |  | > 100 |  | > 100 |  |  | > 100 | > 100 |  | 
CN(C)CCCNC(=O)c1cccc2nc3ccccc3nc12 |  |  |  | > 100 |  | > 100 |  | 47.2 |  | > 59.5 |  | > 100 |  | 60.4 |  |  | 34.6 |  |  | 
C=C1C(=O)O[C@H]2[C@H]1CC/C(COC(=O)c1cccc3ccccc13)=C\CC[C@@]1(C)O[C@@H]21 | 2.19 | 6.45 | 2.95 | 12.8 | 1.85 | 3.42 | 1.7 | 3.43 | 1.39 | 2.76 | 1.62 | 2.98 | 1.98 | 14.7 |  |  | 2.32 | 12.4 | 0.327 | 1.05
COc1ccc(/C=c2\sc3nnc(CCC(=O)Nc4cccc(C(F)(F)F)c4)n3c2=O)cc1 |  |  |  | > 27.4 |  | > 100 |  | > 100 |  | > 100 |  | > 100 |  | > 100 |  |  | 98.5 | 90.3 |  | 
Cc1ccc(-n2nnc3c(sc4ccccc43)c2=O)cc1 | 9.35 | > 100 | > 100 | > 100 | 7.47 | 50 | 2.02 | 4.82 | 17 | > 100 | 28.1 | > 100 | > 100 | > 100 | 30.4 | > 100 | > 100 |  |  | 16.8
CCOc1ccc(/C=N\N2C(=O)c3ccccc3C2=O)cc1 |  |  |  | > 100 |  | > 100 |  | > 100 |  | > 100 |  | > 100 |  | > 100 |  |  | > 100 | > 100 |  | 
CC(N)CN.CC(N)CN.[Cl-].[O]=[Os+2]=[O] (centres undefined) |  |  |  |  | > 100 | > 100 | > 100 | > 100 | 81.4 | > 100 | 97.2 | > 100 |  |  |  |  | > 100 |  |  | > 100
C=C(CS(=O)(=O)c1ccccc1)C(=O)OCC |  |  |  | 17.8 |  | 31.8 |  |  |  | 26.5 |  |  |  | 35 |  |  | 24.4 | 12.2 |  | 
COc1cc(C2CC(=O)c3c(C)nn(-c4nc5ccccc5[nH]4)c3C2)cc(OC)c1OC (centres undefined) | > 100 | > 100 |  |  |  |  |  |  |  |  | > 100 | > 100 |  |  |  |  | 7.8 | > 100 | > 100 | 2.12
CN(C(=O)C12C3C4C1C1C2C3C41C(=O)N(C)C(C)(C)C)C(C)(C)C (centres undefined) |  |  |  | > 50 |  |  |  |  |  | > 50 |  | > 50 |  | > 50 |  |  |  | > 50 |  | 
